Each structure is given as a SMILES string.

Results on one compound are retold here after ChEMBL document CHEMBL1145923, “Synthesis and biological evaluation of 4-arylcoumarin analogues of combretastatins” (J Med Chem, 2003).

The test deals with CCRF-CEM. Nature of the test: Inhibitory activity against CEM human leukemia cell line. The class given is functional, cell-based.

Compound `COc1cc2oc(=O)cc(-c3ccc4c(c3)OCO4)c2c(OC)c1OC` returned an IC50 greater than 50 µM.
